Results from ChEMBL document CHEMBL5030523, “Mechanisms of the Antiproliferative and Antitumor Activity of Novel Telomerase-Carbonic Anhydrase Dual-Hybrid Inhibitors” (J Med Chem, 2021).
Activity calls are given as the source filed them. The rule behind the calls is not given here.

Assays:
[1] = target: Carbonic anhydrase 5A, mitochondrial (Homo sapiens, UniProt P35218); experiment: Inhibition of human carbonic anhydrase 5A by stopped-flow CO2 hydration assay
Carbonic anhydrase 7 = Carbonic anhydrase 7 (Homo sapiens, UniProt P43166); experiment: Inhibition of human carbonic anhydrase 7 by stopped-flow CO2 hydration assay
Chain of Carbonic anhydrase 7 (P43166 whole entry): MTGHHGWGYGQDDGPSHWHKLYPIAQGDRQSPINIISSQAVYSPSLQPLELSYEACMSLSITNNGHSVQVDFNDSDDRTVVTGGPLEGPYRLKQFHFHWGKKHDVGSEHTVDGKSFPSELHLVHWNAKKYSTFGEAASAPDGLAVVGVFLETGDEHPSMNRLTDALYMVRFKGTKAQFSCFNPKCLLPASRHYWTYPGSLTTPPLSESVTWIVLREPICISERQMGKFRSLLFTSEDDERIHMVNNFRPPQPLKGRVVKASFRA

Carbonic anhydrase 9 = Carbonic anhydrase 9 (Homo sapiens, UniProt Q16790); experiment: Inhibition of human carbonic anhydrase 9 by stopped-flow CO2 hydration assay
[2] = target: Telomerase reverse transcriptase (Homo sapiens, UniProt O14746); experiment: Inhibition of telomerase in human COLO 205 cells after 72 hrs by TRAP gel electrophoresis; type: cell-based
Chain of Telomerase reverse transcriptase (O14746 whole entry): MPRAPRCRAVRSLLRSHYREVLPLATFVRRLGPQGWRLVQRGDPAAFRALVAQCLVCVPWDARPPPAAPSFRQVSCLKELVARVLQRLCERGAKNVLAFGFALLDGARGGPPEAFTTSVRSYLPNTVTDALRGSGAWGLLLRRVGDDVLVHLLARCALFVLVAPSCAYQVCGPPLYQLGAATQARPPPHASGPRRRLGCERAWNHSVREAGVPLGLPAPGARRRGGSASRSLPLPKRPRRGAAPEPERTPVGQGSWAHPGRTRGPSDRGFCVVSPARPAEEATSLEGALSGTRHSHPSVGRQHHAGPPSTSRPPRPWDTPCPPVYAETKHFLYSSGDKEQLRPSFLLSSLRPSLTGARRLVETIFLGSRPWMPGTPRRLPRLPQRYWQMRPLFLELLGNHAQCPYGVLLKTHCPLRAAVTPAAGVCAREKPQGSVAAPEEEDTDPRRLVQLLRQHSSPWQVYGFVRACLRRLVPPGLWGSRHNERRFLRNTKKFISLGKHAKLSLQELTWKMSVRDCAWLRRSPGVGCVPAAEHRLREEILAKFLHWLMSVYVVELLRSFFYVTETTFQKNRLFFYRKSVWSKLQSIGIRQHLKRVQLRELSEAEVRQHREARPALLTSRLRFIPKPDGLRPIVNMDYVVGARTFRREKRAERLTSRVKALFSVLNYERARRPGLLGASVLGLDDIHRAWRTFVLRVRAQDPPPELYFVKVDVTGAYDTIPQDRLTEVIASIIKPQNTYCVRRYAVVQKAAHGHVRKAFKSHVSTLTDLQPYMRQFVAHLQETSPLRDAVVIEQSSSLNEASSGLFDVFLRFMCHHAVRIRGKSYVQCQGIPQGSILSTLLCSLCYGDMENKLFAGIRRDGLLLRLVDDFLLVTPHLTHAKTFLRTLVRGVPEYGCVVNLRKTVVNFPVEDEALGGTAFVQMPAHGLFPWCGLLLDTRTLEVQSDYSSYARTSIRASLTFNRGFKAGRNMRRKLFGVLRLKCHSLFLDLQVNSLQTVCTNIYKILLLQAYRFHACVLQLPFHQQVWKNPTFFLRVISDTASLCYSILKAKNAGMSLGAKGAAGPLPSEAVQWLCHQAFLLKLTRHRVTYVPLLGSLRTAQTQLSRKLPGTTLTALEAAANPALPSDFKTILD

COLO 205 [3] = experiment: Induction of cell senescence in human COLO 205 cells assessed by increase SA-beta-Gal activity measured after 44 to 56 days; type: functional, cell-based; conditions: time 44-56 day
COLO 205 [4] = experiment: Antitumor activity against human COLO 205 cells xenografted in BALB/c nude mouse assessed as tumor growth inhibition at 50 mg/kg, sc administered as single dose measured after 3 days relative to control; type: functional; conditions: COLO 205, sc, 72 h, time 3 day, read-out: TGI
COLO [5] = experiment: In vivo inhibition of telomerase in BALB/c mouse xenografted with human COLO 205 cells at 50 mg/kg, sc relative to control; type: functional, organism-based
COLO [6] = experiment: In vivo inhibition of telomerase in BALB/c mouse xenografted with human COLO 205 cells assessed as reduction in telomere length at 50 mg/kg, sc; type: functional, organism-based
COLO 205 [7] = experiment: Cell cycle arrest in human COLO 205 cells assessed as accumulation at G0/G1 phase at 30 uM incubated for 44 days by propidium iodide staining based flow cytometry analysis (reference value: 77.02 %); type: functional; conditions: time 44 day
COLO 205 [8] = experiment: Cell cycle arrest in human COLO 205 cells assessed as accumulation at G0/G1 phase at 30 uM incubated for 56 days by propidium iodide staining based flow cytometry analysis (reference value: 72.81 %); type: functional; conditions: time 56 day
COLO 205 [9] = experiment: Cell cycle arrest in human COLO 205 cells assessed as accumulation at G2/M phase at 30 uM incubated for 56 days by propidium iodide staining based flow cytometry analysis (reference value: 16.01 %); type: functional; conditions: time 56 day
COLO 205 [10] = experiment: Cell cycle arrest in human COLO 205 cells assessed as accumulation at G0/G1 phase incubated for 12 hrs by propidium iodide staining based flow cytometry analysis (reference value: 58.82 %); type: functional
COLO 205 [11] = experiment: Cell cycle arrest in human COLO 205 cells assessed as accumulation S phase incubated for 24 hrs by propidium iodide staining based flow cytometry analysis (reference value: 0.48 %); type: functional
COLO 205 [12] = experiment: Induction of apoptosis in human COLO 205 cells assessed as late apoptotic cells incubated for 12 hrs by Annexin V/FITC and PI staining based flow cytometry analysis (reference value: 13.48 %); type: functional
COLO 205 [13] = experiment: Induction of apoptosis in human COLO 205 cells assessed as viable cells incubated for 24 hrs by Annexin V/FITC and PI staining based flow cytometry analysis (reference value: 71.63 %); type: functional
COLO 205 [14] = experiment: Induction of apoptosis in human COLO 205 cells assessed as early apoptotic cells incubated for 24 hrs by Annexin V/FITC and PI staining based flow cytometry analysis (reference value: 14.75 %); type: functional
COLO 205 [15] = experiment: Antitumor activity against human COLO 205 cells xenografted in BALB/c nude mouse assessed as change in tumor volume at 50 mg/kg, sc administered as single dose measured after 3 days (reference value: 449.3 +/- 86.2 mm3); type: functional; conditions: time 3 day
COLO 205 [16] = experiment: Antitumor activity against human COLO 205 cells xenografted in BALB/c nude mouse assessed as tumor growth inhibition at 50 mg/kg, sc administered as single dose measured after 5 days relative to control; type: functional; conditions: COLO 205, sc, 120 h, time 5 day, read-out: TGI
COLO 205 [17] = experiment: Antitumor activity against human COLO 205 cells xenografted in BALB/c nude mouse assessed as change in tumor volume at 50 mg/kg, sc administered as single dose measured after 5 days (reference value: 270.1 +/- 52.1 mm3); type: functional; conditions: time 5 day

Chain of Carbonic anhydrase 5A, mitochondrial (P35218 whole entry): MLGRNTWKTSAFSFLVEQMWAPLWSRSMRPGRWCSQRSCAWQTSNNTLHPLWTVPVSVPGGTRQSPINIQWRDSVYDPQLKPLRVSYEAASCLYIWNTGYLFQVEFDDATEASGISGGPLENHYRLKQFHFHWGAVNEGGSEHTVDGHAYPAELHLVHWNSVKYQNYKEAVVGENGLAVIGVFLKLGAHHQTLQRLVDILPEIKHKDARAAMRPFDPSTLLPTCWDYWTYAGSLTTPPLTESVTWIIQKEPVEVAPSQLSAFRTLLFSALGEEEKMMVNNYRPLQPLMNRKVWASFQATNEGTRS

SMILES	Ki [1] [nM]	Ki (Carbonic anhydrase 7) [nM]	Ki (Carbonic anhydrase 9) [nM]	inhibition [2]	Activity (COLO 205 [3])	inhibition in vivo at 50 mg/kg (COLO 205 [4]) [%]	inhibition (COLO [5])	inhibition (COLO [6])	Activity (COLO 205 [7]) [%]	Activity (COLO 205 [8]) [%]	Activity (COLO 205 [9]) [%]	Activity (COLO 205 [10]) [%]	Activity (COLO 205 [11]) [%]	Activity (COLO 205 [12]) [%]	Activity (COLO 205 [13]) [%]	Activity (COLO 205 [14]) [%]	Activity (COLO 205 [15]) [mm3]	inhibition in vivo at 50 mg/kg (COLO 205 [16]) [%]	Activity (COLO 205 [17]) [mm3]
Cc1cn([C@H]2C[C@@H](n3cc(CNC(=O)Nc4cccc(S(N)(=O)=O)c4)nn3)[C@@H](CO)O2)c(=O)[nH]c1=O	3240	9.4	> 10000	Dose-Dependent Effect	Active	32.1	Active	Active	55.82	34.74	1.19	87.83	1.61	6.23	94.91	3.09	305.3		
Cc1cn([C@H]2C[C@@H](n3cc(COC(=O)c4ccc(S(N)(=O)=O)cc4)nn3)[C@@H](CO)O2)c(=O)[nH]c1=O	4800	48.5	3.7	Dose-Dependent Effect	Active		Active		60.31	37.46	1.37	67.28	3.52	6.8	92.93	3.82	552.6	33	181.4
